Experimental data: article PMC8287724, “Reducing Auditory Nerve Excitability by Acute Antagonism of Ca^2+-Permeable AMPA Receptors” (Frontiers in Synaptic Neuroscience, 2021)

Tests used:
nAChR alpha4/beta2 = molecular target: T1, nAChR alpha4/beta2 (Homo sapiens, UniProt P17787+P43681); experiment: Radioligand binding assay, neuronal α4β2 nicotinic receptor (transfected SH-SY5Y cells); details: antagonist 1 μM
T1 construct: host or cells: SH-SY5Y cells
Method: (§1) Binding assays were conducted to evaluate the affinity of test compounds IEM-1460 and IEM-1925 (Eurofins Scientific, Inc.) for 15 targets: the human alpha-1 adrenergic (A1) receptor, histaminergic (H)-2 and−3 receptors, and muscarinic acetylcholine receptors-1 to−5 in transfected CHO cells by radioligand binding. The neuronal α4β2 and neuronal α7 cholinergic acetylcholine receptors were tested in transfected SH-SY5Y cells. The histaminergic-1 and−4 receptors were tested in transfected HEK-293 cells. Ion channel testing for AMPA and N-methyl-D-aspartate (NMDA) was performed in cells from the rat cerebral cortex. […] Non-specific binding was determined in the presence of 1 μM of DCPX. […] The filters were dried and then counted for radioactivity in a scintillation counter (Topcount, Packard) using a scintillation cocktail (Microscint 0, Packard). The results are expressed as a percent inhibition of the control radioligand specific binding: 100-[(measured specific binding)/(control specific binding) × 100]. […]
(§2) We tested the metabolic stability of the compounds with in vitro liver microsome stability assays (Table 1, right). […] We evaluated the compounds for potential toxicity with assays that test for inhibition of off-target ion channels and receptors. […]

[1] = Metabolic stability in vitro as summarised in the abstract (species not given); assay type: in vitro ADME; details: mouse, guinea pig, human, liver microsomes, pH 7.4
Method: The stability of IEM-1460 in the presence of guinea pig liver microsomes (BioIVT, PN: X008070) or IEM-1925 in the presence of human (BioIVT, PN: M00101), mouse, or guinea pig liver microsomes was evaluated (Paraza Pharma, Inc., Montreal, Quebec, Canada). Both IEM-1925 and IEM-1460 were incubated with microsomes at 37°C for a total of 45 min. Working solutions were prepared in 100 mM potassium phosphate buffer and the final reaction was performed at pH 7.4 in 100 mM potassium phosphate buffer containing 0.5 mg/mL liver microsomal protein. Phase I metabolism was assessed by adding NADPH to a final concentration of 1 mM and collecting samples at time points 0, 5, 15, 30, and 45 min. All collected samples were quenched 1:1 with ice-cold stop solution (1 μM labetalol and 1 μM glyburide in acetonitrile) and centrifuged to remove precipitated protein. […] Samples were analyzed by LC-MS/MS using a Thermo Vanquish UPLC and a Thermo Quantis triple quadrupole mass spectrometer. […] Reference compounds were also assessed to ensure accuracy and precision of experimental protocol: imipramine and verapamil for human liver microsomes, diphenhydramine and verapamil for mouse liver microsomes, and warfarin and verapamil for guinea pig liver microsomes. […] Half-life was determined from a plot of the natural logarithm of the peak area ratio (remaining compound peak area/internal standard peak area) against time.

H3 histamine GPCR = molecular target: T2, H3 histamine GPCR (Homo sapiens, UniProt Q9Y5N1); experiment: Radioligand binding assay, H3 receptor (transfected CHO cells); details: antagonist 1 μM
T2 construct: host or cells: CHO cells
Method: as §1, §2

T2 sequence (Q9Y5N1 whole entry): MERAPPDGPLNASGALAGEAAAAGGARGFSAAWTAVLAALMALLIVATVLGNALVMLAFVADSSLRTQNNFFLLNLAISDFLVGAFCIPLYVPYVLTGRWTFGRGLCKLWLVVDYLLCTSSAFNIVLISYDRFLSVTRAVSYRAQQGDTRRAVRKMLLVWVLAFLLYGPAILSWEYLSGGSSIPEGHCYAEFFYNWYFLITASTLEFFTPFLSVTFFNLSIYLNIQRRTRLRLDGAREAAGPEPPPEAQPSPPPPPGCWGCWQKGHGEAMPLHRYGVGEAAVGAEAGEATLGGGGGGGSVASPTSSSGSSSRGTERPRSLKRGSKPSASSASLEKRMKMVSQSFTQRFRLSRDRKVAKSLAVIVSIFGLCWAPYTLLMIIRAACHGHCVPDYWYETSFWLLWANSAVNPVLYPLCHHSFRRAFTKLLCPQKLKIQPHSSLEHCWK
T1 sequence (P43681 29-627 limits assumed): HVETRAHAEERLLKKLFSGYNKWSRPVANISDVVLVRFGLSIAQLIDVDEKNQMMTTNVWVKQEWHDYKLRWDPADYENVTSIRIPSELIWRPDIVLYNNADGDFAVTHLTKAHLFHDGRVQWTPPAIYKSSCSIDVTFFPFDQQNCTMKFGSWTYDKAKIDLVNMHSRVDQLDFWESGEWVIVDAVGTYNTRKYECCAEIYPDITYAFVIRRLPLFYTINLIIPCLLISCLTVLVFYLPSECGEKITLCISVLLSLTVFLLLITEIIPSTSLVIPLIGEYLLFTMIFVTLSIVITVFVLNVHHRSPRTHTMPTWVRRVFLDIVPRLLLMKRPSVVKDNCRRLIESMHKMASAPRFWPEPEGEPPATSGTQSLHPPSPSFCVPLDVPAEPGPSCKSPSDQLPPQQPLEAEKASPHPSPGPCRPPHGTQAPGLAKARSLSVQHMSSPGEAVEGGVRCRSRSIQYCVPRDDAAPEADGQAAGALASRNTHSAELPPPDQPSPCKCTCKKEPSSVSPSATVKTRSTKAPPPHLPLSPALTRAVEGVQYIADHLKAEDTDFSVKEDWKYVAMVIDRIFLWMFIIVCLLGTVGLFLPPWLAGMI
T1 sequence (P17787 26-502): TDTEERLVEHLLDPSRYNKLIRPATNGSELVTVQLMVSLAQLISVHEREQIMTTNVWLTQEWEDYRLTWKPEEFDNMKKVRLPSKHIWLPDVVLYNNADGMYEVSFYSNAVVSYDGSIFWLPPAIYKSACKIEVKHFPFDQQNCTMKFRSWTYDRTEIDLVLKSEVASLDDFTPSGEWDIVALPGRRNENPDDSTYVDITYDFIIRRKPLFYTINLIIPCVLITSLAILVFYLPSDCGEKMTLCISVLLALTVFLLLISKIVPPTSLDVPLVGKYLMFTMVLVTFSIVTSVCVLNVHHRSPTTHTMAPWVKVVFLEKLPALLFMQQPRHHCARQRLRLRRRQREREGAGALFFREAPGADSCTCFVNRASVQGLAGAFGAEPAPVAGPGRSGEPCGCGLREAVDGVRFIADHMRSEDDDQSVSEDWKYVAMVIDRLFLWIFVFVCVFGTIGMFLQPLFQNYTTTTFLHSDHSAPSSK

Row | SMILES | Mean% inhibition (N = 2) of radioligand binding (nAChR alpha4/beta2) [%] | half-life [1] [h] | Mean% inhibition (N = 2) of radioligand binding (H3 histamine GPCR) [%]
1 | C[N+](C)(C)CCCCCNCC12CC3CC(CC(C3)C1)C2 [IEM-1460] | <1 | > 5 | <1
2 | NCCCCCNC1(c2ccccc2)CCCCC1 [IEM-1925] | <1 | > 5 | <5
